# Laboratory results taken from PMC3290904 (Biochemistry, 2012).
# Assays:
# AdiC (S26C mutant) [1] = target: T1, AdiC (S26C mutant) (Salmonella enterica, UniProt P60066, S26C/C80S/C97S/C129S/C238S/C281S/C286S/C369S/C398S); assay: isothermal titration calorimetry; assay type: binding
# T1 sequence (P60066 1-445 S26C/C80S/C97S/C129S/C238S/C281S/C286S/C369S/C398S): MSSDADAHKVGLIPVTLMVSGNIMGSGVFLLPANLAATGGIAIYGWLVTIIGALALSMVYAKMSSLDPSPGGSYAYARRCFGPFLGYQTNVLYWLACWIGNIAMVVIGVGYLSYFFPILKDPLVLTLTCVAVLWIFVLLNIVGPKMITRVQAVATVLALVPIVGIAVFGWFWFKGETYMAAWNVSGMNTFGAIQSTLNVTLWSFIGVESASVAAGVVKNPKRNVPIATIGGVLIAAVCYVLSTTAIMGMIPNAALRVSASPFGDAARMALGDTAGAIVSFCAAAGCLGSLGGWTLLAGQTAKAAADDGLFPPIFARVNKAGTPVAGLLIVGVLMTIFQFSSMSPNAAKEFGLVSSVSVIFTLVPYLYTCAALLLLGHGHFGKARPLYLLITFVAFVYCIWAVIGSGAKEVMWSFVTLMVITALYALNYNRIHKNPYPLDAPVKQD
# [2] = target: AdiC (arginine-agmatine antiporter) (Salmonella enterica, UniProt P60066); assay: isothermal titration calorimetry; assay type: binding
# AdiC (S26C mutant) [3] = target: AdiC (S26C mutant) (Salmonella enterica, UniProt P60066, C129S/C238S/C281S/C286S/C369S/C398S/C80S/C97S/S26C); assay: competitive inhibition of […]-arginine uptake in oriented proteoliposomes; assay type: biochemical
Compound,Kd (AdiC (S26C mutant) [1]),Kd [2],Ki (AdiC (S26C mutant) [3])
N=C(N)NCCC[C@H](N)C(=O)O [arginine],22 ± 2 µM,32 µM,
N=C(N)NCCC[C@H](N)C(N)=O [argininamide],,,1100 µM
